Data as given in patent US20050209157A1, “Short bioactive peptides and methods for their use” (priority 2001, published 2005).
Values after ≈ are worked out from the molar mass of the structure shown. Like-named read-outs stand apart in the source and are kept apart here. No end group written: not given here.

Tests used:
Escherichia coli 25922 = assay: microbe, parasite or virus in culture
Description: Synergy between peptide Shiva-10 (SEQ ID NO:4) and various antimicrobial agents was investigated against Escherichia coli 25922.
Synergy between tetracycline and various peptides was investigated against Escherichia coli 25922 MBC. […] When combined with the peptides, the concentration of tetracycline was held at 1.5 ppm.

Staph. aureus 29213 = assay: microbe, parasite or virus in culture; details: for MBC: Staphylococcus aureus, 29213, read-out: MBC, Without peptide; for MBC, With 5 μg/mL peptide: with 5 μg/mL peptide Shiva-10
Description: This experiment determined the peptide MBC in the absence of the antimicrobial agent, or in the presence of the indicated concentration of antimicrobial agent

in vitro [1] = format: cell-based, human; details: human, human red blood cells
cancer cell lines = assay: Anti-cancer assays, MTT, summary over the cancer cell lines; format: cell-based; details: X = preferred
[2] = system: human leukocyte (WBC) cells; assay: Stimulation and proliferation of leukocytes, Alamar Blue; format: cell-based; details: 48 hours
[3] = system: human fibroblast cells (WI38); assay: Stimulation and proliferation of fibroblasts, CyQuant; format: cell-based; details: for Peptide treated cell activity Stimulation relative to control: 48 hrs, 2.0% FBS
Description: Procedure: Different cell lines were maintained with different medium according to the ATCC. […] The cell suspension was centrifuged for 10 minutes at 100 rpm. The supernatant was removed and discarded without disturbing the cell pellet. A concentrated cell suspension was prepared in 1.0 ml of medium to obtain a density of about 10^5 to 10^6 cells/ml. The actual cell density was determined by counting the cells using a hemocytometer with the Trypan Blue method. Cell numbers were adjusted to obtain equal number of cells per 200 μl volume. Cells were plated with 0% FBS, 2% FBS, 3% FBS and 5% FBS. The plates were incubated at 37° C. for a time sufficient to allow the cells to attach. For long-term proliferation studies, 100 μl of medium was removed from each well each day and replaced with fresh medium.
At the desired time, the medium was removed from the adherent cells in a 96 well plate. These cells were already treated with test agents. The cells were frozen in the plate at −70° C. for 30 minutes. The cells were thawed at room temperature. CyQuant GR dry/Cell Lysis Buffer (200 μl) was added to each sample cell. The cells were incubated at room temperature for 15 minutes while protected from the light. Fluorescence was measured using fmax at 485-538 nm.
The above CyQuant protocol was used to examine possible peptide stimulation and/or proliferation of fibroblasts. […] This is shown by the addition of Fetal Bovine Serum (FBS) to the medium. […] Control cells and peptide treated cells are with medium and FBS as indicated.

[4] = system: human red blood cells (RBC); assay: in vitro; format: cell-based; details: human red blood cells
fungal = assay: Presently preferred antifungal peptides, selected from the MIC/MBC data; format: cell-based; details: X = preferred
Description: The peptide's “length” is the number of amino acid residues in the sequence.

in vitro [5] = details: human, WI38 normal lung fibroblast cells
[6] = system: Escherichia coli ATCC 25922; assay: Antimicrobial assay I, modified protocol (tryptic soy broth), MBC; details: minimum bactericidal concentration, Table 4
Description: The preparation of all media, stock solutions, and dilutions took place in a laminar flow hood to prevent contamination. Bacterial cells were freshly grown on antibiotic medium 2 agar slants (pH 7.0 at 25° C.). Bacteria were suspended and diluted in antibiotic medium 3 to about 10^4 cfu/ml and used as the inoculum. Sample solutions (100 μl/well) were added to plates according to the plate layout. Inoculum (100 μl/well) was added to achieve a final concentration of 5×10^3 cfu/ml. Negative controls received 100 μl saline and 100 μl growth medium. Positive controls received 100 μl saline and 100 μl inoculum. Bacterial plates were incubated at 37° C. for 24 hours.
However, the data for Table 4 were obtained with a modified protocol wherein the medium was tryptic soy broth, inocolum strength was approximately 10^4 CFU per ml, and values determined were minimum bactericidal concentrations (MBC) or minimum fungicidal concentrations (MFC).
MBC or MFC values are in μg/mL. E. coli is Escherichia coli ATCC accession number 25922; P. aerug is Pseudomonas aeruginosa ATCC accession number 27853, S. aur. is Stapholococcus aureus ATCC accession number 25923; Candida is Candida albicans ATCC accession number 10231.

[7] = system: Pseudomonas aeruginosa ATCC 27853; assay: as above; details: minimum bactericidal concentration, Table 4
[8] = system: Stapholococcus aureus ATCC 25923; assay: as above; details: minimum bactericidal concentration, Table 4
[9] = system: Candida albicans ATCC 10231; assay: Antimicrobial assay I, modified protocol (tryptic soy broth), MFC; details: minimum fungicidal concentration, Table 4
[10] = system: Pseudomonas aeruginosa ATCC 9027; assay: Antimicrobial assay I, MIC by OD measurement; format: cell-based; details: 37° C. for 24 hours, absorbance 620 nm
[11] = system: Staphylococcus aureus ATCC 6538; assay: Antimicrobial assay I, MIC by OD measurement; format: cell-based; details: 37° C. for 24 hours, absorbance 620 nm
[12] = system: yeast (Saccharomyces cerevisiae); assay: Antimicrobial assay I, yeast assay in RPMI 1640; format: cell-based; details: RPMI 1640 media
S. aureus (MRSA) = format: cell-based, Staphylococcus aureus; details: mean of three; 16 to 20 hours at 35° C.
S. epidermidis C621 = format: cell-based, Staphylococcus epidermidis; details: mean of three; 16 to 20 hours at 35° C.
S. pyogenes M76 = assay: Antimicrobial assays II, NCCLS broth microdilution MIC; format: cell-based, Streptococcus pyogenes; details: mean of three; 16 to 20 hours at 35° C.
S. pyogenes ATCC19615 = assay: as above; format: cell-based, Streptococcus pyogenes; details: mean of three, in µg/mL
S. pneumoniae C718 = assay: as above; format: cell-based, Streptococcus pneumoniae; details: mean of three
P. acne ATCC 6919 = assay: as above; format: cell-based, Propionibacterium acnes; details: mean of three, in µg/mL
BMKC = assay: Anti-cancer assay, MTT, LD50; format: cell-based; details: BMKC cloned melanoma line, 24 hours with peptide
Description: (§1) Numbers are LD50 values (μg/mL).

H1299 = assay: Anti-cancer assay, MTT, LD50; format: cell-based; details: 24 hours with peptide, lung large cell carcinoma
Description: as §1

HeLaS3 = assay: Anti-cancer assay, MTT, LD50; format: cell-based; details: 24 hours with peptide, cervical carcinoma
Description: as §1

MCF7 = assay: Anti-cancer assay, MTT, LD50; format: cell-based; details: MCF7 breast adenocarcinoma line, MTT, 24 hours with peptide
Description: as §1

PC3 = assay: Anti-cancer assay, MTT, LD50; format: cell-based; details: 24 hours with peptide, prostate adenocarcinoma
Description: as §1

SW480 = assay: Anti-cancer assay, MTT, LD50; format: cell-based; details: SW480 colon adenocarcinoma line, 24 hours with peptide
Description: as §1

P. aeruginosa H374 = format: cell-based, Pseudomonas aeruginosa; details: for FIC Index: 0.5 or less = synergy
Outline: (§2)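 Efflux-mutant strains were tested with two-fold serial dilutions of chloramphenicol or nalidixic acid, alone and with peptide held at ¼ of its own MIC.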

P. aeruginosa H774 = format: cell-based, Pseudomonas aeruginosa; details: P. aeruginosa H744; nalidixic acid + peptide at ¼ MIC; 0.5 or less = synergy
Outline: as §2

P. aeruginosa = format: cell-based, Pseudomonas aeruginosa; details: P. aeruginosa H744; MIC of nalidixic acid with peptide at ¼ MIC
Outline: as §2

WI38 = details: MTT, 24 hours with peptide; normal fibroblast line
[13] = Escherichia coli, 25922, read-out: MBC, Without peptide
[14] = pH 7, hemolytic assay, concentration at 50% hemolysis, 1 hour at 37° C., read-out: LD50

CCN1CCN(C(=O)N[C@@H](C(=O)N[C@@H]2C(=O)N3C(C(=O)O)=C(CSc4nnnn4C)CS[C@H]23)c2ccc(O)cc2)C(=O)C1=O [Cefoperazone]
MBC (Escherichia coli 25922; [13]): 150 µg/mL | MBC, With peptide (Escherichia coli 25922; with 15 μg/mL peptide Shiva-10): 2.5 µg/mL | MBC (Staph. aureus 29213): 10 µg/mL (≈ 15.5 µM) | MBC, With 5 μg/mL peptide (Staph. aureus 29213): 2.5 µg/mL (≈ 3.87 µM)

CN(C)[C@@H]1C(O)=C(C(N)=O)C(=O)[C@@]2(O)C(O)=C3C(=O)c4c(O)cccc4[C@@](C)(O)[C@H]3C[C@@H]12 [Tetracycline]
MBC (Escherichia coli 25922; Escherichia coli, 25922, read-out: MBC of tetracycline): 10 µg/mL | MBC (Escherichia coli 25922; [13]): 10 µg/mL | MBC, With peptide (Escherichia coli 25922; with 5 μg/mL peptide Shiva-10): 2.5 µg/mL | MBC (Staph. aureus 29213): 10 µg/mL (≈ 22.5 µM) | MBC, With 5 μg/mL peptide (Staph. aureus 29213): 1 µg/mL (≈ 2.25 µM)

CC(C)C[C@H](NC(=O)[C@H](C)NC(=O)[C@H](CC(C)C)NC(=O)[C@H](C)NC(=O)[C@H](CC(C)C)NC(=O)[C@H](CCCCN)NC(=O)[C@H](C)NC(=O)[C@H](CC(C)C)NC(=O)[C@H](CCCCN)NC(=O)[C@H](CCCCN)NC(=O)[C@H](C)NC(=O)[C@H](CC(C)C)NC(=O)[C@H](CCCCN)NC(=O)[C@H](CCCCN)NC(=O)[C@H](CC(C)C)NC(=O)[C@H](CCCCN)NC(=O)[C@H](CCCCN)NC(=O)[C@H](C)NC(=O)[C@H](CC(C)C)NC(=O)[C@H](CCCCN)NC(=O)[C@H](CCCCN)NC(=O)[C@H](C)NC(=O)[C@@H](N)Cc1ccccc1)C(N)=O [P11, reference compound]
HC50 at 1 h (in vitro [1]; [14]): 76 µg/mL | MBC, Without peptide (Escherichia coli 25922; agent alone): 50 µg/mL | MBC, Without peptide (Staph. aureus 29213; agent alone): 200 µg/mL (≈ 78.9 µM)

CC1(C)S[C@@H]2[C@H](NC(=O)[C@H](C(=O)O)c3ccsc3)C(=O)N2[C@H]1C(=O)O [Ticarcillin]
MBC (Escherichia coli 25922; [13]): 100 µg/mL | MBC, With peptide (Escherichia coli 25922; with 15 μg/mL peptide Shiva-10): 50 µg/mL | MBC (Staph. aureus 29213): 25 µg/mL (≈ 65 µM) | MBC, With 5 μg/mL peptide (Staph. aureus 29213): 15 µg/mL (≈ 39 µM)

FALALKALKKALKKLKKALKKAL-NH2 [compound 2]
Anti-cancer (preferred peptide) (cancer cell lines): X (Preferred anticancer peptides can be selected as having LD50 values of less than or equal to about 25 μg/ml) | Peptide treated cell activity Percent stimulation relative to control ([2]; 0.1 ug/ml): 117% | Peptide treated cell activity Percent stimulation relative to control ([2]; 1 ug/ml): 118% | Peptide treated cell activity Percent stimulation relative to control ([2]; 10 ug/ml): 119% | Peptide treated cell activity Percent stimulation relative to control ([2]; 100 ug/ml): 121% | Peptide treated cell activity Percent stimulation relative to control ([2]; 500 ug/ml): 119% | percent cell viability above or below control ([3]; 0.1 μg/ml, 0% FBS): −27% | Peptide treated cell activity Stimulation relative to control ([3]; 0.1 μg/ml): 125% | percent cell viability above or below control ([3]; 0.1 μg/ml, […] FBS): 26% | percent cell viability above or below control ([3]; 1 μg/ml, 0% FBS): −3% | Peptide treated cell activity Stimulation relative to control ([3]; 1 μg/ml): 156% | percent cell viability above or below control ([3]; 1 μg/ml, […] FBS): 57% | percent cell viability above or below control ([3]; 10 μg/ml, 0% FBS): 27% | Peptide treated cell activity Stimulation relative to control ([3]; 10 μg/ml): 122% | percent cell viability above or below control ([3]; 10 μg/ml, […] FBS): 23% | percent cell viability above or below control ([3]; 100 μg/ml, 0% FBS): −82% | Peptide treated cell activity Stimulation relative to control ([3]; 100 μg/ml): 35% | percent cell viability above or below control ([3]; 100 μg/ml, […] FBS): −66% | HC50 at 1 h (in vitro [1]; pH 7, Table 26, valine substitution, read-out: Hemolysis RBC LD50): 12 µg/mL | Peptide toxicity RBC LD/50 [4]: 30 | Anti-fungal (preferred peptide) (fungal): X (Preferred antifungal peptides can be selected as having MIC or MBC values of less than or equal to about 25 μg/ml) | CC50 at 24 h (in vitro [5]; Peptide toxicity WI-38 LD/50, human fibroblast cells): 66 µg/mL | CC50 at 24 h (in vitro [5]; WI-38 LD50, Table 26, valine substitution): 66 µg/mL | MBC E. coli A.25922 [6]: 25 µg/mL | MBC P. aerug A.27853 [7]: 10 µg/mL | MBC S. aur A.25923 [8]: 25 µg/mL | MFC Candida A.10231 [9]: >50 µg/mL

CC(C)C[C@H](NC(=O)[C@H](C)NC(=O)[C@H](CC(C)C)NC(=O)[C@H](CCCCN)NC(=O)[C@H](C)NC(=O)[C@H](CC(C)C)NC(=O)[C@H](CCCCN)NC(=O)[C@H](CCCCN)NC(=O)[C@H](C)NC(=O)[C@H](CC(C)C)NC(=O)[C@H](CCCCN)NC(=O)[C@H](C)NC(=O)[C@H](CC(C)C)NC(=O)[C@H](CCCCN)NC(=O)[C@H](CCCCN)NC(=O)[C@H](C)NC(=O)[C@@H](N)Cc1ccccc1)C(N)=O [P35]
paerug9027 (MIC) [10]: 200 µg/mL | staph6538 (MIC) [11]: 5 µg/mL | yeast (MIC or MFC) [12]: 25 µg/mL | S. aureus (MRSA) MIC (S. aureus (MRSA)): 8 µg/mL | S. epidermidis C621 MIC (S. epidermidis C621): 4 µg/mL | S. pyogenes M76 MIC (S. pyogenes M76): 4 µg/mL | S. pyogenes MIC (S. pyogenes ATCC19615): 16 | S. pneumoniae MIC (S. pneumoniae C718): 4 µg/mL | P. acne MIC (P. acne ATCC 6919): 4 | LD50 BMKC (BMKC): 7 µg/mL | H1299 LD50 (H1299): 16 µg/mL | HeLaS3 LD50 (HeLaS3): 27 µg/mL | LD50 MCF7 (MCF7): 9 µg/mL | PC3 LD50 (PC3): 5 µg/mL | LD50 SW480 (SW480): 14 µg/mL | HC50 at 1 h (in vitro [1]; [14]): 200 µg/mL | MBC of peptide (Staph. aureus 29213; in the presence of Cefoperazone ([…])): 20 µg/mL | MBC of peptide (Staph. aureus 29213; in the presence of Vancomycin (1 ppm)): 32 µg/mL | MBC of peptide (Staph. aureus 29213; peptide alone): 50 µg/mL | MIC Cm-comb. (P. aeruginosa H374; MIC of chloramphenicol with peptide at ¼ MIC): 16 µg/mL | MIC Nal-comb. (P. aeruginosa H374; MIC of nalidixic acid with peptide at ¼ MIC): 10,000 μg/ml | FIC Index (P. aeruginosa H374; chloramphenicol + peptide at ¼ MIC): 1.25 | FIC Index (P. aeruginosa H374; nalidixic acid + peptide at ¼ MIC, FIC=0.25+MIC comb/MIC alone): 2.25 | FIC Index (P. aeruginosa H774): 1.25 | MIC Nal-comb. (P. aeruginosa): 624 µg/mL | WI38 LD50 (WI38): 8 µg/mL | CC50 at 24 h (in vitro [5]; LD50 WI38, WI38 normal lung fibroblast line, MTT, 24 hours with peptide): 8 µg/mL (≈ 4.31 µM)
